According to patent US20230285598A1, “SULFOXONIUM YLIDE DERIVATIVES AS PROBES FOR CYSTEINE PROTEASE” (Takeda Pharmaceutical Company Limited, priority 2018, published 2023):
Entries after “also recorded” stand apart in the source; their conditions may differ.

How the values were obtained:
cathepsin X [1] = target: T1, cathepsin X (Mus musculus, UniProt Q9WUU7); assay: Probe labeling of kidney lysates, in-gel fluorescence; assay type: biochemical; conditions: 0.1-5 µM for 20 minutes
Experimental: issues were harvested from healthy mice and snap frozen. At the time of analysis, lysis buffer was added at 10x volume:weight, and tissues were sonicated on ice. Cleared lysates were labeled with the indicated probe and analyzed as above.
In Example 7, sulfoxonium ylide probes as prepared in accordance with Example 1 were tested in kidney lysates and the results compared to BMV109. The sulfoxonium ylide probes (and BMV109) were each added with increasing probe concentrations of 0.1 µM, 0.5 µM, 1 µM and 5 µM for 20 minutes.

cathepsin X [2] = target: T1, cathepsin X; assay: In vivo probe labeling in mice (intravenous), tissues analyzed by fluorescent SDS-PAGE
Experimental: For in vivo labeled tissues, mice were first injected intravenously via the tail vein with sCy5-Nle-SY, BMV109, or sCy5-Nle-AOMK (50 nmol in 100 µl 10% DMSO/PBS or vehicle control). Tissues were harvested and analyzed as above except without further probe addition.
In Example 10, the probe sCy5-Nle-SY, vehicle control/no probe (NP) or BMV109 were injected into mice intravenously. After two hours of circulation, tissues were harvested, lysed, and analyzed for probe labeling by fluorescent SDS-PAGE.
In Example 12, the AOMK probe sCy5-Nle-AOMK was tested in vivo and its labeling in tissues was analyzed. The probe was injected into mice intravenously. After two hours of circulation, tissues were harvested, lysed, and analyzed for probe labeling by fluorescent SDS-PAGE.

cathepsin X [3] = target: T1, cathepsin X; assay: Probe labeling of RAW264.7 cell lysates, SDS-PAGE in-gel fluorescence; assay type: biochemical; parameters: protein lysates prepared from RAW264.7 cells; host or cells: RAW264.7; conditions: Example 6; 0.01-5 µM for 20 minutes
Experimental: ells were harvested by scraping, washed once with PBS, and resuspended in lysis buffer containing 50 mM citrate [pH 5.5], 0.5% CHAPS, 0.1% Triton X-100, and 4 mM DTT. Cells were incubated on ice for at least 10 minutes with intermittent vortexing followed by centrifugation ([…] at 4° C. or 5 minutes). Cleared supernatants were then transferred to a fresh tube and protein concentration was determined by BCA. Total protein (50 µg) was aliquoted into tubes in a final volume of 20 µl lysis buffer. Where indicated, JPM-OEt or MDV-590 were added from a 100x DMSO stock and incubated at 37° C. or 20 minutes prior to probe addition. The indicated concentration of probe was added from a 100x DMSO stock. Labeling was carried out at 37° C. or 20 minutes (unless otherwise indicated), and the reactions were quenched by the addition of 5x sample buffer (200 mM Tris-Cl [pH 6.8], 8% SDS, 0.04% bromophenol blue, 5% b-mercaptoethanol, and 40% glycerol). Samples were then boiled for five minutes and proteins were resolved on a 15% SDS-PAGE gel. The gels were scanned on a Typhoon 5 flatbed laser scanner at 633/670 nm excitation/emission to detect sCy5 fluorescence.
robe-labeled lysate from above (in sample buffer) was divided into input or pulldown (~50 µg total protein each). The input sample was stored at -20° C. The pulldown sample was diluted in 500 µl IP buffer (PBS [pH 7.4],[…], 1 mM EDTA). Goat anti-cathepsin X antibody (10 µl) was added along with 40 µl slurry of pre-washed Protein A/G agarose beads. Samples were rotated overnight at 4° C. Beads were then washed four times with IP buffer followed by a final wash in 0.9% NaCl. Beads were then resuspended in 2x sample buffer and boiled. The pulldown supernatants, alongside the input samples, were analysed by fluorescent SDS-PAGE as above.
In Example 3, the sulfoxonium ylide probe sCy5-Val-SY was incubated with protein lysates prepared from RAW264.7 cells, an immortalized mouse macrophage line that contains high levels of active cysteine cathepsins (Verdoes et al., 2013). Cells were lysed in citrate buffer (pH 5.5) to provide optimal conditions for cathepsin activation, and the probe was added • at 1 µM for 20 minutes • at various concentrations (0 µM, 0.01 µM, 0.05 µM, 0.1 µM, 0.5 µM or 1 µM) for 20 minutes; or • at 1 µM for varying times (0, 1, 2, 5, 10, 20, and 30 minutes).
Then the lysates were resolved by SDS-PAGE and the gel scanned for sCy5 fluorescence using a flatbed laser scanner.
The labeling profile of sCy5-Val-SY was compared to that of BMV109, the pan-cathepsin probe, by repeating the above experiment using BMV109 as the probe added at 1 µM for 20 minutes.
In Example 6, a small library of sulfoxonium ylide probes with varying amino acids in the P1 position as prepared in accordance with Example 1 was tested in RAW264.7 lysates, and compared to BMV109. Each probe was added with increasing probe concentrations of 0.01 µM, 0.05 µM, 0.1 µM, 0.5 µM, 1 µM and 5 µM for 20 minutes).

cathepsin X [4] = target: cathepsin X (Homo sapiens, UniProt Q9UBR2); assay: Labeling of human oral squamous cell carcinoma tissue lysates, in-gel fluorescence; assay type: biochemical; parameters: Tissues were lysed by sonication in citrate buffer and supernatants were cleared by centrifugation; from tissue; host or cells: human oral squamous cell carcinoma biopsies and patient-matched normal oral mucosa; conditions: °C5 µM for 20 minutes; 80 µg protein
Sequence of cathepsin X (Homo sapiens, UniProt Q9UBR2) (Q9UBR2 62-303): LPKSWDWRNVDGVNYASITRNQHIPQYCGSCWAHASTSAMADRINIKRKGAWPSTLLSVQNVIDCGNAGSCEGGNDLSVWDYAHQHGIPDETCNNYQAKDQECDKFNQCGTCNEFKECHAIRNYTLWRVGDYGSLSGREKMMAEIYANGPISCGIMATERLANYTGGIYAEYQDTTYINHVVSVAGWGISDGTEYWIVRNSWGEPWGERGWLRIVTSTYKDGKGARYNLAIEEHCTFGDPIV
From the text: To investigate the ability of sCy5-,Nle-SY to label cathepsin X in human tissues, biopsies that were obtained from patients with oral squamous cell carcinoma were used. Normal oral mucosal tissues that were biopsied from the contralateral side of the tongues of the same patients were used as controls.
The human oral squamous cell carcinomas or patient-matched normal oral mucosa were biopsied according to protocols approved by the Institutional Review Board at the New York University Oral Cancer Centre. Biopsies were immediately snap-frozen and stored at -80° C. Tissues were lysed by sonication in citrate buffer and supernatants were cleared by centrifugation. Total protein concentration was assessed by BCA assay and 80 µg were labelled with Cy5-Nle-SY: The lysates prepared from the oral squamous cell carcinoma tissue or patient-matched normal oral mucosa were incubated with sCy5-Nle-SY (°C5 µM for 20 minutes) and labeling was analyzed by in-gel fluorescence (fluorescent SDS-PAGE). Samples were also immunoblotted to determine total cathepsin X expression (n=10). Additionally, the sCy5-Nle-SY-labeled cancer lysates were immunoprecipitated with a cathepsin X-specific antibody to verify the identity of the labeled protein.

[5] = intravenous 50 nmol, two hours of circulation

T1 sequence (Q9WUU7 64-306): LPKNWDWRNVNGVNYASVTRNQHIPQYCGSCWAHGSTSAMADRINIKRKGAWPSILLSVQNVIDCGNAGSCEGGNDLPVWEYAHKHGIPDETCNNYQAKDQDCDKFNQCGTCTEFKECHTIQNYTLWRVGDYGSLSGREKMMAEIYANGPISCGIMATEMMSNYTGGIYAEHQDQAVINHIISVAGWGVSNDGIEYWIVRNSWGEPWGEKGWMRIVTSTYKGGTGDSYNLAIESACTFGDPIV

- overall specificity profile in vivo (cathepsin X [2]; intravenous, two hours, compared to BMV109): clearly improved compared to BMV109
- potency of labeling in RAW264.7 lysates (cathepsin X [3]): the most potent
SMILES: CCCC[C@H](NC(=O)CCCCCN1/C(=C/C=C/C=C/C2=[N+](CC)c3ccc(S(=O)(=O)[O-])cc3C2(C)C)C(C)(C)c2cc(S(=O)(=O)O)ccc21)C(=O)C=S(C)(C)=O [sCy5-Nle-SY]
- potency and specificity of labeling in kidney lysates (cathepsin X [1]): the most potency and specificity for cathepsin X
- labeling of cathepsin S, B and L in tissues after in vivo administration (cathepsin X [2]; [5]): some labeling of cathepsin S was also observed; also recorded: does not label cathepsin B or L
- labeling of cathepsin X in tissues after in vivo administration (cathepsin X [2]; [5]): Labeling of cathepsin X was observed in liver, kidney, colon, stomach, and spleen
- labeling of cathepsin X in human oral squamous cell carcinoma lysates (cathepsin X [4]): clear and selective labeling of cathepsin X was observed
